The source of these data is ChEMBL document CHEMBL1165903, “Design and synthesis of 1,4-dihydropyridine derivatives as BACE-1 inhibitors” (Eur J Med Chem, 2010).

The first test deals with T1, Beta-secretase 1 (Homo sapiens, UniProt P56817). Nature of the test: Inhibition of BACE1.
T1 sequence (P56817 whole entry): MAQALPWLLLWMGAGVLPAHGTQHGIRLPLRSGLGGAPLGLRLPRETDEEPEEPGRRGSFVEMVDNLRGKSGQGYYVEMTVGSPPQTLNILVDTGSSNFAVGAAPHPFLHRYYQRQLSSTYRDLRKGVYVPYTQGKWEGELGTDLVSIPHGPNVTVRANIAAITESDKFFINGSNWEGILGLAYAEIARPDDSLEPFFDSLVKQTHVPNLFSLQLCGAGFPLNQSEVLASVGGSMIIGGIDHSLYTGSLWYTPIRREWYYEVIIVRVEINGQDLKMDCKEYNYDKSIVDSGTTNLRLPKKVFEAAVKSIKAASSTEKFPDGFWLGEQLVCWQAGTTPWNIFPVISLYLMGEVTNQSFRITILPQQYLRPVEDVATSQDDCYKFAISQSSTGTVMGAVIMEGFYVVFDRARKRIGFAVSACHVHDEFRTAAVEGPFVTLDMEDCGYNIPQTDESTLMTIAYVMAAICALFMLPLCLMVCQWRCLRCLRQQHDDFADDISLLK
Compound `CCNc1cc(C(=O)N[C@@H](Cc2ccccc2)[C@H](O)CNc2cccc(C(F)(F)F)c2)cc(N2CCCCS2(=O)=O)c1` came in with an IC50 of 0.005 µM.

The target in a further test is T1, Beta-secretase 1. Nature of the test: Inhibition of BACE1 in human HEK293 cells transfected with pCDNA-neo-SEAP-APP assessed as secreted alkaline phosphatase after cleavage of beta-site of APP by fluorescence assay. Format: cell-based.
As to `CCCC1C(C(=O)N[C@@H](Cc2ccccc2)[C@H](O)CNc2cccc(OC)c2)=CN(CC(=O)OC(C)C)C=C1C(=O)N[C@H](C)c1ccccc1` (stereo not given in full), the IC50 turned out to be 31.2 µM.
Take `CC(=O)C1=C(C)N(CC(=O)OC(C)C)C(C)=C(C(=O)N[C@@H](Cc2ccccc2)[C@H](O)CNc2cccc(F)c2)C1C` (stereo not given in full): the IC50 turned out to be 26.4 µM.
Take `CCCC1C(C(C)=O)=C(C)N(CC(=O)OC(C)C)C(C)=C1C(=O)N[C@@H](Cc1ccccc1)[C@H](O)CNC1CC1` (stereo not given in full): the IC50 came out at 33.1 µM.
`CC1=C(C(=O)NOCc2ccccc2)C(C(C)C)C(C(=O)N[C@@H](Cc2ccccc2)[C@H](O)CNC2CC2)=C(C)N1S(C)(=O)=O` (stereo not given in full): the IC50 is 11 µM.
Regarding `CCCC1C(C(=O)N[C@@H](Cc2ccccc2)[C@H](O)CNc2cccc(OC)c2)=CN(CC(=O)OC(C)C)C=C1C(=O)OC(C)(C)C` (stereo not given in full), the IC50 came out at 30.4 µM.
Same read-out and setting: the value for `CC1=C(C(=O)NOCc2ccccc2)C(C)C(C(=O)N[C@@H](Cc2ccccc2)[C@H](O)CNC2CC2)=C(C)N1S(C)(=O)=O` (stereo not given in full) was 14.9 µM; that for `CCCC1C(C(=O)N[C@@H](Cc2ccccc2)[C@H](O)CNC2CC2)=CN(CC(=O)OC(C)C)C=C1C(=O)N[C@H](C)c1ccccc1` (stereo not given in full) was 29.6 µM; that for `CCCC1C(C(C)=O)=C(C)N(CC(=O)OC(C)C)C(C)=C1C(=O)N[C@@H](Cc1ccccc1)[C@H](O)CNc1cccc(F)c1` (stereo not given in full) was 27.1 µM.
On to `CC1=C(C(=O)N[C@@H](Cc2ccccc2)[C@H](O)CNC2CC2)C(C)C(C(=O)OCc2ccccc2)=C(C)N1CC(=O)N(C)C(C)C` (stereo not given in full), for which the IC50 was found to be 28.2 µM.
For the compound `CCCC1C(C(C)=O)=C(C)N(CC(=O)OC(C)C)C(C)=C1C(=O)N[C@@H](Cc1ccccc1)[C@H](O)CNc1cccc(OC)c1` (stereo not given in full), the 50% inhibitory concentration (IC50) turned out to be 26.6 µM.
`CCCC1C(C(C)=O)=C(C)N(CC(=O)OC(C)C)C(C)=C1C(=O)N[C@@H](Cc1ccccc1)[C@H](O)CNCc1cccc(OC)c1` (stereo not given in full): the IC50 was determined as 23.2 µM.
`CCCC1C(C(=O)NOCc2ccccc2)=C(C)N(S(C)(=O)=O)C(C)=C1C(=O)N[C@@H](Cc1ccccc1)[C@H](O)CNC1CC1` (stereo not given in full): the IC50 stood at 8.1 µM.
The same measure, in the same setting: the value for `CC1=C(C(=O)NOCc2ccccc2)C(C)C(C(=O)N[C@@H](Cc2ccccc2)[C@H](O)CNC2CC2)=C(C)N1CC(=O)OC(C)C` (stereo not given in full) was 9 µM; that for `CCC1C(C(=O)N[C@@H](Cc2ccccc2)[C@H](O)CNC2CC2)=C(C)N(S(C)(=O)=O)C(C)=C1C(=O)N[C@H](C)c1ccccc1` (stereo not given in full) was 16.2 µM; that for `CCCC1C(C(=O)N[C@@H](Cc2ccccc2)[C@H](O)CNC2CC2)=CN(CC(=O)OC(C)C)C=C1C(=O)OC(C)(C)C` (stereo not given in full) was 24.6 µM.
On the same count and under the same terms, the value for `CC1=C(C(=O)N[C@@H](Cc2ccccc2)[C@H](O)CNC2CC2)C(C)C(C(=O)N[C@H](C)c2ccccc2)=C(C)N1S(C)(=O)=O` (stereo not given in full) was 16.1 µM.
The same measure, in the same setting: the value for `CCC1C(C(=O)NOCc2ccccc2)=C(C)N(S(C)(=O)=O)C(C)=C1C(=O)N[C@@H](Cc1ccccc1)[C@H](O)CNC1CC1` (stereo not given in full) was 9.5 µM.
For `CC(=O)C1=C(C)N(CC(=O)OC(C)C)C(C)=C(C(=O)N[C@@H](Cc2ccccc2)[C@H](O)CNC2CC2)C1C` (stereo not given in full), the IC50 amounted to 29.3 µM.
On the same count and under the same terms, next, `CC(C)OC(=O)CN1C=C(C(=O)N[C@@H](Cc2ccccc2)[C@H](O)CNC2CC2)C(C)C(C(=O)OC(C)(C)C)=C1` (stereo not given in full): 31.9 µM; `CC(C)OC(=O)CN1C=C(C(=O)N[C@@H](Cc2ccccc2)[C@H](O)CNC2CC2)C(C)C(C(=O)N[C@H](C)c2ccccc2)=C1` (stereo not given in full): 32.8 µM; `CC1=C(C(=O)OCc2ccccc2)C(C)C(C(=O)N[C@@H](Cc2ccccc2)[C@H](O)CNC2CC2)=CN1CC(=O)OC(C)C` (stereo not given in full): 16.1 µM.
Same read-out and setting: the value for `COC(=O)CN1C(C)=C(C(=O)NOCc2ccccc2)C(C)C(C(=O)N[C@@H](Cc2ccccc2)[C@H](O)CNC2CC2)=C1C` (stereo not given in full) was 15.2 µM; that for `CC1=C(C(=O)NOCc2ccccc2)C(c2ccccc2)C(C(=O)N[C@@H](Cc2ccccc2)[C@H](O)CNC2CC2)=C(C)N1S(C)(=O)=O` (stereo not given in full) was 21.4 µM; that for `CC(=O)C1=C(C)N(CC(=O)OC(C)C)C=C(C(=O)N[C@@H](Cc2ccccc2)[C@H](O)CNc2cccc(F)c2)C1C` (stereo not given in full) was 29.3 µM.
Same read-out and setting: the value for `CC1=C(C(=O)N[C@@H](Cc2ccccc2)[C@H](O)CNC2CC2)C(C)C(C(=O)OCc2ccccc2)=C(C)N1CC(=O)N(C)C` (stereo not given in full) was 39.1 µM; that for `CC(=O)OCCCN1C(C)=C(C(=O)N[C@@H](Cc2ccccc2)[C@H](O)CNC2CC2)C(C)C(C(=O)OCc2ccccc2)=C1C` (stereo not given in full) was 26.9 µM.
`CC1=C(C(=O)N[C@@H](Cc2ccccc2)[C@H](O)CNC2CC2)C(C)C(C(=O)OCc2ccccc2)=C(C)N1CC(=O)N1CCOCC1` (stereo not given in full): the IC50 amounted to 28.4 µM.
On the same count and under the same terms, next, `COc1cccc(CNC[C@@H](O)[C@H](Cc2ccccc2)NC(=O)C2=CN(CC(=O)OC(C)C)C(C)=C(C(C)=O)C2C)c1` (stereo not given in full): 26.1 µM; `CCOC(=O)CN1C(C)=C(C(=O)NOCc2ccccc2)C(C)C(C(=O)N[C@@H](Cc2ccccc2)[C@H](O)CNC2CC2)=C1C` (stereo not given in full): 15.5 µM.
